Five molecules from ChEMBL document CHEMBL4819091, “Identification of novel gankyrin binding scaffolds by high throughput virtual screening” (Bioorg Med Chem Lett, 2021) can be followed below.

For assay [1], the target named is T1, 26S proteasome non-ATPase regulatory subunit 10 (Homo sapiens) (UniProt O75832).
T1 sequence (whole entry): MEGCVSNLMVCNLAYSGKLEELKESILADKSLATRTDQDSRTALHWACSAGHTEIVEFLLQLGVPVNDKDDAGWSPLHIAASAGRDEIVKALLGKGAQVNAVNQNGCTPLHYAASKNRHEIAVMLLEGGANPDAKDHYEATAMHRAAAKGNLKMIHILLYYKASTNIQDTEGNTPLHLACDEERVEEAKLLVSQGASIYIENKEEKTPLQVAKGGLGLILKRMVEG
The experiment in a line: Binding affinity to recombinant human His-tagged gankyrin expressed in Escherichia coli assessed as change in melting temperature at 300 uM by SYPRO orange dye based thermal shift assay.

Assay [2] concerns the target T1, 26S proteasome non-ATPase regulatory subunit 10 (Homo sapiens). The experiment in a line: Inhibition of gankyrin in human Hep3B cells assessed as increase in CUGBP1 level at 12.5 to 50 uM by immunoblot assay. Format: cell-based. The following applies: dose 12.5-50 µM. Background: In western blotting, separated proteins are transferred to a membrane and probed.
Assay [3] has the same target. Description: Inhibition of gankyrin in human HuH-6 cells assessed as increase in phopho-Rb level at 25 to 100 uM by immunoblot assay. In kind it is cell-based. The following applies: dose 25-100 µM.
The target is the same in assay [4]. Description: Inhibition of gankyrin in human Hep3B cells assessed as increase in p53 level at 12.5 to 50 uM by immunoblot assay. In kind it is cell-based. The following applies: dose 12.5-50 µM.
The subject of assay [5] is A549. The experiment in a line: Cytotoxicity against human A549 cells assessed as reduction in cell viability incubated for 72 hrs by MTT assay. Format: functional, cell-based. The following applies: A549, 72 h. On the technique in general: Tetrazolium assays rely on reduction of a dye to a coloured formazan, in cell work by metabolically active cells.
Assay [6] can be described thus: Cytotoxicity against human HuH-6 cells assessed as reduction in cell viability incubated for 72 hrs by MTT assay. In kind it is functional, cell-based. The following applies: HuH-6, 72 h.
For assay [7], the system named is HepG2. The experiment in a line: Cytotoxicity against human HepG2 cells assessed as reduction in cell viability incubated for 72 hrs by MTT assay. In kind it is functional, cell-based. The following applies: HepG2, 72 h.
In assay [8] the test system is MDA-MB-231. Description: Cytotoxicity against human MDA-MB-231 cells assessed as reduction in cell viability incubated for 72 hrs by MTT assay. Format: functional, cell-based. The following applies: MDA-MB-231, 72 h.
The target in assay [9] is T1, 26S proteasome non-ATPase regulatory subunit 10 (Homo sapiens). Description: Inhibition of gankyrin in human HuH-6 cells assessed as increase in p53 level at 25 to 100 uM by immunoblot assay. In kind it is cell-based. The following applies: dose 25-100 µM.
Assay [10] deals with Hep 3B2. Description: Cytotoxicity against human Hep3B cells assessed as reduction in cell viability incubated for 72 hrs by MTT assay. In kind it is functional, cell-based.
Assay [11] relates to A549. The experiment in a line: Potency index, ratio of IC50 of Cjoc42 to IC50 of compound for cytotoxicity against human A549 cells assessed as reduction in cell viability incubated for 72 hrs by MTT assay. Format: functional.
Assay [12] relates to HepG2. The experiment in a line: Potency index, ratio of IC50 of Cjoc42 to IC50 of compound for cytotoxicity against human HepG2 cells assessed as reduction in cell viability incubated for 72 hrs by MTT assay. Format: functional.
The nature of assay [13]: Potency index, ratio of IC50 of Cjoc42 to IC50 of compound for cytotoxicity against human HuH-6 cells assessed as reduction in cell viability incubated for 72 hrs by MTT assay. In kind it is functional.
In assay [14] the test system is Hep 3B2. The experiment in a line: Potency index, ratio of IC50 of Cjoc42 to IC50 of compound for cytotoxicity against human Hep3B cells assessed as reduction in cell viability incubated for 72 hrs by MTT assay. Format: functional.
For assay [15], the system named is MDA-MB-231. The experiment in a line: Potency index, ratio of IC50 of Cjoc42 to IC50 of compound for cytotoxicity against human MDA-MB-231 cells assessed as reduction in cell viability incubated for 72 hrs by MTT assay. Format: functional.

Molecules are shown by their SMILES. The source made the active and inactive calls. The calls are words filed in the database; no cut-off is given here.

Regarding `COc1cccc2c1O[C@@](C)(CCC(=O)O)[C@@H]1CC[C@@H](CCCN)O[C@@H]21`, the ΔTm in assay [1] turned out to be 0.17 °C.

Turning to `O=C(O)COc1ccc(CC(=O)O)cc1-c1cc(-c2ccc(Cl)cc2)n(CCc2ccccc2)n1`, in assay [1], the ΔTm came out at 1.94 °C. Further, the inhibition result in assay [2], in [3], in [4] and in [9] was “Active” each time. The IC50 (with A549 [5]; in assay [6]; with HepG2 [7]; in the assay on MDA-MB-231 [8]; in the assay with Hep 3B2 [10]) was above 100 µM in each case.

On to `COC(=O)c1ccc(-n2cc(CCCOS(=O)(=O)c3ccc(C)cc3)nn2)cc1`, for which the ΔTm in assay [1] was 0.5 °C. Besides, the IC50 in the assay with A549 [5] was above 100 µM; in assay [6], 70.7 µM; in the assay with HepG2 [7] it was above 100 µM; with MDA-MB-231 [8] it was above 100 µM; in the assay with Hep 3B2 [10], above 100 µM.

`O=C(O)CN(Cc1ccc(Cl)cc1)C(=O)c1cnc(N2CCC[C@H]2COc2ccc(Cl)cc2)nc1CCc1ccccc1`: the “Ratio IC50” value was found to be 2.2 in the assay with A549 [11]; 1.9 in the assay with HepG2 [12]; 1.6 in assay [13]; 3.9 in the assay with Hep 3B2 [14]; 1.1 in the assay with MDA-MB-231 [15]. In addition, the ΔTm in assay [1] turned out to be 7.92 °C. Also, the IC50 in the assay on A549 [5] was 45.6 µM; in [6], 44.3 µM; with HepG2 [7], 52.7 µM; with MDA-MB-231 [8], 88.1 µM; with Hep 3B2 [10], 25.5 µM.

Regarding `CS(=O)(=O)Cc1cccc(C(=O)NS(=O)(=O)c2ccc(S(C)(=O)=O)cc2)c1`, the ΔTm in assay [1] turned out to be 0.29 °C.

Usually ΔTm stands for the shift of the melting midpoint relative to a reference. One may read the IC50 as the point on the concentration scale where inhibition reaches its midpoint.
